The target of one experiment is Syk kinase (Homo sapiens, UniProt P43405). Put plainly: SYK Enzymatic Assay (Z-LYTE Tyr 2 peptide). The class given is biochemical. As to conditions: 8 concentrations 1 μM down to 0.0003 μM. How it is done:
Syk kinase assay are performed in vitro using Kit-Tyr 2 Peptide (Invitrogen, Cat. No. PV3191) and in a 384-well assay plate. […] The 384-well assay plate (Corning, Cat. No. 3575) is mixed and incubated at room temperature for 1 hour. 10 μL of the Development Solution (prepared by diluting Development Reagent A (Cat. No. PV3297) to 1/32 with Development Buffer (Cat. No. PV3127)) is then added to each well, mixed and incubated at room temperature for another 1 hour. The reactions are then stopped by adding 10 μL of the Stop Reagent (Invitrogen, Cat. No. PV3094), and the plate is read with Wallac 1420 VICTOR^3 Multilabel Counter (PerkinElmer™) at 445 nm and 520 nm fluorescence. All compounds are tested at 8 concentrations (1 μM down to 0.0003 μM) using a 1:3 serial dilution scheme.

Another experiment deals with RBL-2H3 cells. Put plainly: IgE-induced Beta-hexosaminidase secretion in RBL-2H3 cells. Format: cell-based. As to conditions: Rattus norvegicus, DNP-BSA stimulation. How it is done: For the determination of IgE-induced Beta-hexosaminidase secretion, RBL-2H3 cells (SIBS) are seeded in 96 well plates at 4×10^4 cells per well and incubated in MEM media with 15% FBS and Glutamine ([…]) for 4 hours and sensitized with 0.5 ug/ml of SPE-7 overnight. Cells are washed 3 times with Tyrode's buffer and incubated in the presence or absence of various concentrations of the testing compound for 20 min at 37° C., 5% CO2. Cells are stimulated by adding 10 uL of DNP-BSA solution (150 ng/mL) to each well and incubating for 45 minutes at 37° C., 5% CO2. Then, 45 μL of the supernatant is taken and incubated with 100 μL of 1 mM 4-Nitrophenyl N-acetyl-β-D-glucosaminide (Sigma, Cat. No. N9376), which is diluted in 0.05 M citrate buffer (pH 4.5), for 1.5 hr at 37° C. The reactions are quenched by adding 185 μL of 0.05 M sodium carbonate buffer (pH 10.0). Plates are read at 405 nm on Multiskan (MK 3).

Setting [1] is: RBL-2H3, IgE-induced Beta-hexosaminidase secretion.

We go through 46 compounds from patent US20170152258A9, “Substituted Pyridopyrazines as Syk Inhibitors” (HUTCHISON MEDIPHARMA LIMITED, priority 2012, published 2017).

Consider `CC(=O)N1CC(c2ccc(-c3cc4nccnc4c(OC[C@@H]4CN(C(N)=O)CCO4)n3)cc2)C1` [Cmpd 296], for which the IC50 at Syk kinase was 72 nM; in the experiment on RBL-2H3 cells (setting [1]) it was > 3330 nM.

On to `O=C(C(F)F)N1CCO[C@H](COc2nc(-c3ccc(N4CCNCC4)cc3)cc3nccnc23)C1` [Compound 6, (S)-2,2-difluoro-1-(2-((7-(4-(piperazin-1-yl)phenyl)pyrido[4,3-b]pyrazin-5-yloxy)methyl)morpholino)ethanone], for which the IC50 was 34 nM on Syk kinase and 260 nM in the experiment on RBL-2H3 cells (IgE-induced Beta-hexosaminidase secretion).

In the case of `CS(=O)(=O)N1CCO[C@H](COc2nc(-c3ccc(N4CCOCC4)c(F)c3)cc3nccnc23)C1` [Compound 7], the IC50 against Syk kinase is 71 nM; in the experiment with RBL-2H3 cells (setting [1]), 122 nM.

With `CN1CCC(c2ccc(-c3cc4nccnc4c(OC[C@@H]4CN(S(C)(=O)=O)CCO4)n3)cc2)CC1` [Compound 8], the IC50 against Syk kinase worked out at 48 nM; in the experiment on RBL-2H3 cells (setting [1]), 113 nM.

Regarding `O=C(C(F)F)N1CCO[C@H](COc2nc(-c3ccc(C4CCOCC4)cc3)cc3nccnc23)C1` [Compound 9], the IC50 was 98 nM at Syk kinase and 127 nM in the experiment with RBL-2H3 cells (setting [1]).

For `CS(=O)(=O)N1CCO[C@H](COc2nc(-c3ccc(C4CCOCC4)cc3)cc3nccnc23)C1` [Compound 11], the 50% inhibitory concentration (IC50) amounted to 52 nM against Syk kinase and 48 nM in the experiment with RBL-2H3 cells (setting [1]).

`CS(=O)(=O)N1CCO[C@H](COc2nc(-c3ccc(N4CCOCC4)cc3)cc3nccnc23)C1` [Compound 12]: the half-maximal inhibitory concentration (IC50) at Syk kinase was 24 nM; in the experiment on RBL-2H3 cells (setting [1]) it was 21 nM.

`CN1CCN(c2ccc(-c3cc4nccnc4c(OC[C@@H]4CN(S(C)(=O)=O)CCO4)n3)cc2)CC1` [Compound 13]: the concentration for half-maximal inhibition (IC50) at Syk kinase was determined as 25 nM; in the experiment with RBL-2H3 cells (setting [1]) it was 40 nM.

With `CS(=O)(=O)N1CCO[C@H](COc2nc(-c3ccc(N4CCNCC4)cc3)cc3nccnc23)C1` [Compound 14], the IC50 at Syk kinase came out at 25 nM; with RBL-2H3 cells (setting [1]), 631 nM.

Consider `O=C(C(F)F)N1CCO[C@H](COc2nc(-c3ccc(N4CCOCC4)c(F)c3)cc3nccnc23)C1` [Compound 15], for which the IC50 against Syk kinase came to 96 nM; in the experiment on RBL-2H3 cells (setting [1]) it was 102 nM.

On to `CN1CCN(c2ccc(-c3cc4nccnc4c(OC[C@@H]4CN(C(=O)C(F)F)CCO4)n3)cc2)CC1` [Compound 16], for which the half-inhibitory concentration (IC50) at Syk kinase is 36 nM; with RBL-2H3 cells (setting [1]) it was 33 nM.

`CCN1CCN(c2ccc(-c3cc4nccnc4c(OC[C@@H]4CN(C(=O)C(F)F)CCO4)n3)cc2)CC1` [Compound 17]: the IC50 came out at 32 nM against Syk kinase and 56 nM in the experiment on RBL-2H3 cells (setting [1]).

As for `CC1CN(c2ccc(-c3cc4nccnc4c(OC[C@@H]4CN(S(C)(=O)=O)CCO4)n3)cc2)CCO1` (stereo partly drawn) [Compound 18], the IC50 turned out to be 23 nM against Syk kinase and 62 nM in the experiment on RBL-2H3 cells (setting [1]).

As to `C[C@@H]1CN(c2ccc(-c3cc4nccnc4c(OC[C@@H]4CN(S(C)(=O)=O)CCO4)n3)cc2)C[C@H](C)O1` [Compound 19], the IC50 against Syk kinase turned out to be 29 nM; in the experiment on RBL-2H3 cells (setting [1]), 110 nM.

Turning to `CS(=O)(=O)N1CCO[C@H](COc2nc(-c3ccc(N4CCC(F)(F)CC4)cc3)cc3nccnc23)C1` [Compound 20], the IC50 stood at 41 nM against Syk kinase and 66 nM with RBL-2H3 cells (setting [1]).

With `CS(=O)(=O)N1CCO[C@H](COc2nc(-c3ccc(N4CCCCC4)cc3)cc3nccnc23)C1` [Compound 21], the IC50 on Syk kinase was 30 nM; in the experiment on RBL-2H3 cells (setting [1]), 88 nM.

In the case of `CC(C)(O)C1CCN(c2ccc(-c3cc4nccnc4c(OC[C@@H]4CN(S(C)(=O)=O)CCO4)n3)cc2)CC1` [Compound 22], the IC50 on Syk kinase was found to be 16 nM; with RBL-2H3 cells (setting [1]), 73 nM.

In the case of `CCS(=O)(=O)N1CCC(c2ccc(-c3cc4nccnc4c(OC[C@@H]4CN(C(C)=O)CCO4)n3)cc2)CC1` [Compound 23], the IC50 against Syk kinase is 62 nM; in the experiment on RBL-2H3 cells (setting [1]) it was 109 nM.

Consider `CC(=O)N1CCO[C@H](COc2nc(-c3ccc(N4CCOCC4)cc3)cc3nccnc23)C1` [Compound 24], for which the IC50 at Syk kinase came to 76 nM; in the experiment on RBL-2H3 cells (setting [1]) it was 127 nM.

In the case of `CCS(=O)(=O)N1CCN(c2ccc(-c3cc4nccnc4c(OC[C@@H]4CN(C(C)=O)CCO4)n3)cc2)CC1` [Compound 25], the values for the IC50 against Syk kinase and with RBL-2H3 cells (setting [1]) were 67 nM and 155 nM, respectively.

With `CS(=O)(=O)N1CCN(c2ccc(-c3cc4nccnc4c(OC[C@@H]4CN(S(C)(=O)=O)CCO4)n3)cc2)CC1` [Compound 26], the IC50 against Syk kinase was 18 nM; in the experiment with RBL-2H3 cells (setting [1]) it was 113 nM.

`CS(=O)(=O)N1CCO[C@H](COc2nc(-c3ccc(N4CCN(CCO)CC4)cc3)cc3nccnc23)C1` [Compound 27]: the IC50 was 21 nM on Syk kinase and 222 nM with RBL-2H3 cells (setting [1]).

Take `NS(=O)(=O)N1CCO[C@H](COc2nc(-c3ccc(N4CCCCC4)cc3)cc3nccnc23)C1` [Compound 28]: the IC50 against Syk kinase worked out at 40 nM; in the experiment on RBL-2H3 cells (setting [1]), 142 nM.

For `NS(=O)(=O)N1CCO[C@H](COc2nc(-c3ccc(N4CCC(F)(F)CC4)cc3)cc3nccnc23)C1` [Compound 29], the 50% inhibitory concentration (IC50) against Syk kinase was 66 nM; with RBL-2H3 cells (setting [1]), 106 nM.

As for `NS(=O)(=O)N1CCO[C@H](COc2nc(-c3ccc(N4CCCC4)cc3)cc3nccnc23)C1` [Compound 30], the figures for the IC50 at Syk kinase and in the experiment on RBL-2H3 cells (setting [1]) were 43 nM and 277 nM, respectively.

In the case of `COC1CCN(c2ccc(-c3cc4nccnc4c(OC[C@@H]4CN(S(C)(=O)=O)CCO4)n3)cc2)CC1` [Compound 31], the IC50 against Syk kinase is 17 nM; in the experiment on RBL-2H3 cells (setting [1]) it was 56 nM.

As to `CN(C)c1ccc(-c2cc3nccnc3c(OC[C@@H]3CN(C(=O)C(F)F)CCO3)n2)cc1F` [Compound 32], the IC50 at Syk kinase was 60 nM; in the experiment on RBL-2H3 cells (setting [1]), 76 nM.

On to `CC(=O)N1CCC(c2ccc(-c3cc4nccnc4c(OC[C@@H]4CN(S(C)(=O)=O)CCO4)n3)cc2)CC1` [Compound 33], for which the IC50 was 27 nM against Syk kinase and 64 nM in the experiment on RBL-2H3 cells (setting [1]).

With `CNc1ccc(-c2cc3nccnc3c(OC[C@@H]3CN(S(C)(=O)=O)CCO3)n2)cc1` [Compound 36], the IC50 against Syk kinase was found to be 55 nM; with RBL-2H3 cells (setting [1]), 97 nM.

As for `COc1ccc(-c2cc3nccnc3c(OC[C@@H]3CN(S(C)(=O)=O)CCO3)n2)cc1` [Compound 38], the IC50 against Syk kinase came to 83 nM; in the experiment with RBL-2H3 cells (setting [1]) it was 278 nM.

`Cn1ccc2cc(-c3cc4nccnc4c(OC[C@@H]4CN(S(C)(=O)=O)CCO4)n3)ccc21` [Compound 39]: the IC50 against Syk kinase came out at 33 nM; with RBL-2H3 cells (setting [1]), 76 nM.

Consider `COc1ccc(-c2cc3nccnc3c(OC[C@@H]3CN(S(C)(=O)=O)CCO3)n2)cc1OC` [Compound 43], for which the IC50 worked out at 13 nM on Syk kinase and 37 nM in the experiment with RBL-2H3 cells (setting [1]).

In turn, `CC(=O)N1CCO[C@H](COc2nc(-c3ccc(C4(C#N)CC4)cc3)cc3nccnc23)C1` [Compound 276] displayed an IC50 at Syk kinase of 112 nM.

Compound `C=C(C)c1ccc(-c2cc3nccnc3c(OC[C@@H]3CN(S(C)(=O)=O)CCO3)n2)cc1` [Compound 277, (S)-4-(methylsulfonyl)-2-(((7-(4-(prop-1-en-2-yl)phenyl)pyrido[3,4-b]pyrazin-5-yl)oxy)methyl)morpholine] returned an IC50 on Syk kinase of 192 nM.

In turn, `CC(=O)N1CCO[C@H](COc2nc(-c3ccc(C(C)(CO)CO)cc3)cc3nccnc23)C1` [Compound 278] yielded an IC50 at Syk kinase of 175 nM.

As for `COC(C)c1ccc(-c2cc3nccnc3c(OC[C@@H]3CN(C(C)=O)CCO3)n2)cc1` (stereo partly drawn) [Compound 280], on Syk kinase, half-maximal inhibition (IC50) required 113 nM.

`CC(=O)N1CCO[C@H](COc2nc(-c3ccc(C(O)C(C)(C)C)cc3)cc3nccnc23)C1` (stereo partly drawn) [Compound 285]: the IC50 at Syk kinase came to 258 nM.

As to `CC(=O)N1CCO[C@H](COc2nc(-c3ccc(C(O)C(C)C)cc3)cc3nccnc23)C1` (stereo partly drawn) [Compound 286], on Syk kinase, the midpoint of inhibition, the IC50, lay at 403 nM.

Compound `CC(C)C(O)c1ccc(-c2cc3nccnc3c(OC[C@@H]3CN(S(C)(=O)=O)CCO3)n2)cc1` (stereo partly drawn) [Compound 287] returned an IC50 against Syk kinase of 105 nM.

On Syk kinase, `CC(=O)N1CCO[C@H](COc2nc(-c3ccc(C4(C#N)CCC4)cc3)cc3nccnc23)C1` [Compound 289] gave an IC50 of 115 nM.

Compound `CC(=O)N1CC(c2ccc(-c3cc4nccnc4c(OC[C@@H]4CN(C(C)=O)CCO4)n3)cc2)C1` [Compound 295, (S)-1-(2-(((7-(4-(1-acetylazetidin-3-yl)phenyl)pyrido[3,4-b]pyrazin-5-yl)oxy)methyl)morpholino)ethanone] came in with an IC50 on Syk kinase of 128 nM.

The compound `CC(=O)N1CCO[C@H](COc2nc(-c3ccc(C4(O)CCC4)cc3)cc3nccnc23)C1` [Compound 309] registered an IC50 at Syk kinase of 127 nM.

Regarding `CN1C[C@@H](COc2nc(-c3ccc(C(C)(C)O)cc3)cc3nccnc23)OCC1=O` [Compound 310], at Syk kinase, 588 nM corresponded to half-maximal inhibition (IC50).

Turning to `CC(=O)NC(C)(C)c1ccc(-c2cc3nccnc3c(OC[C@@H]3CN(S(C)(=O)=O)CCO3)n2)cc1` [Compound 313], the IC50 against Syk kinase turned out to be 104 nM.

As for `CC(C)(O)c1ccc(-c2cc3nccnc3c(OCC3OCCNC3=O)n2)cc1` (stereo not drawn) [Compound 319], at Syk kinase, the IC50 was determined as 208 nM.

On Syk kinase, `CS(=O)(=O)N1CCC(c2ccc(-c3cc4nccnc4c(OCC4OCCNC4=O)n3)cc2)CC1` (stereo not drawn) [Compound 320] had an IC50 of 119 nM.
